Results from PubChem BioAssay AID1549 (Sanford-Burnham Center for Chemical Genomics, 2009).
The source made the active and inactive calls. The rule behind the calls is not given here.

Target: Influenza A virus M2 proton channel (A/TW/4845/1999 H1N1)
Experiment: M2 proton channel binding, NMR based, influenza A virus H1N1 strain (AID 1549)
Settings: NMR binding screen, M2 protein

SMILES	Kd
c1ccc(-c2csc3ncn4nnnc4c23)cc1	> 4 mM (inactive)
CC(=O)NC(=S)Nc1ccc(S(N)(=O)=O)cc1	> 4 mM (inactive)
COc1cc2c(cc1OC)[C@@H]1C(=O)c3ccc(OC)c(CC=C(C)C)c3O[C@@H]1CO2	> 4 mM (inactive)
COC(=O)[C@@]1(C)CCC[C@]2(C)c3ccc(O)c(C(C)C)c3CCC12 (some centres not stated)	> 4 mM (inactive)
Cc1ccc(-c2nn3c(C)nnc3s2)cc1N	> 4 mM (inactive)
Nc1nonc1-c1nc2ccccc2[nH]1	> 4 mM (inactive)
NC(=O)C1CCN(C(=S)Nc2ccccc2)CC1	> 4 mM (inactive)
O=C(Cc1cccs1)Nc1ccccn1	> 4 mM (inactive)
O=Cc1c(N2CCOCC2)nc2ccccn2c1=O	> 4 mM (inactive)
Cn1[nH]c2nc3[nH]n(C)c(=O)c3c(-c3ccccc3)c2c1=O	> 4 mM (inactive)
C=C(C)[C@H]1Cc2c(ccc3c2O[C@@H]2COc4cc(OC)c(OC)cc4[C@@H]2C3=O)O1	> 4 mM (inactive)
CC1(C)Cc2nc3n[nH]c(N)c3cc2CO1	> 4 mM (inactive)
CC(=O)O[C@@H]1CC2C(C)(C)[C@@H](O)CC[C@]2(C)C2CC[C@@]3(C)[C@H](c4ccoc4)OC(=O)[C@H]4O[C@]43[C@@]21C (some centres not stated)	> 4 mM (inactive)
NC12CC3CC(C1)CC(O)(C3)C2	> 4 mM (inactive)
Nc1cc(=O)[nH]c(=S)n1-c1ccc(F)cc1	> 4 mM (inactive)
NC(=O)CSc1nnnn1-c1ccccc1	> 4 mM (inactive)
CC(=O)Nc1ccc2c(c1)C(=O)N(C1CCCCC1)C2=O	> 4 mM (inactive)
CC1CCN(C(=S)c2ccccc2O)CC1	> 4 mM (inactive)
COC(=O)C[C@@H]1C2(C)C(=O)[C@@H](CC3=C4C=C(OC)O[C@@H](c5ccoc5)[C@]4(C)CCC32)[C@H](O)C1(C)C (some centres not stated)	> 4 mM (inactive)
Cc1occc1C(=O)NC1CCN(C)CC1	> 4 mM (inactive)
CS(=O)(=O)N1CCN(C(=O)c2ccccc2)C1	> 4 mM (inactive)
COC(=O)Nc1nc2c(s1)CCCC2	> 4 mM (inactive)
COC(=O)c1cc(-c2c(C)nn(-c3ccccc3)c2C)n[nH]1	> 4 mM (inactive)
O=C1OC(N2CCOCC2)c2ccccc21 (configuration not stated)	> 4 mM (inactive)

SMILES	Kd
C=C[C@H]1CN2CC[C@H]1C[C@@H]2[C@H](O)c1ccnc2ccccc12	> 4 mM (inactive)
Cc1[nH]c(=O)[nH]c(=O)c1N1CCOCC1	> 4 mM (inactive)
CN1C2CC3C[C@H]1C(O3)C2O (some centres not stated)	> 4 mM (inactive)
O=C(O)C1(S(=O)(=O)c2ccccc2)CC1	> 4 mM (inactive)
CC(C)(C)CC(=O)NNC(=O)c1cnccn1	> 4 mM (inactive)
NC(=O)CN1C(=O)c2cccc3cccc1c23	> 4 mM (inactive)
COc1cccc2c1CCC1=CC(=O)CC[C@@]12C	> 4 mM (inactive)
CSc1ccccc1NC(=O)c1c(C)noc1C	> 4 mM (inactive)
O=C1CC(NCc2ccco2)C(=O)NN1 (configuration not stated)	> 4 mM (inactive)
CC(C)C(C)/C=C/C(C)C1CCC2C3=CC=C4CC(O)CCC4(C)C3CCC21C (configuration not stated)	> 4 mM (inactive)
O=C(O)c1ccc(-n2cccc2)cc1	> 4 mM (inactive)
CC(=O)Oc1c(-c2ccccc2)oc2c(CC=C(C)C)c3c(c(OC(C)=O)c2c1=O)C=CC(C)(C)O3	> 4 mM (inactive)
O=c1[nH]cnc2nc[nH]c12	> 4 mM (inactive)
CCCNC(=O)CSc1nnc(C)s1	> 4 mM (inactive)
Cc1cccc(N2CCN(C(=O)c3ccncc3)CC2)c1C	> 4 mM (inactive)
CC1=C(C(N)=O)C(c2ccccc2)NC(=O)N1 (configuration not stated)	> 4 mM (inactive)
CCOc1ccc2nc(NS(C)(=O)=O)sc2c1	> 4 mM (inactive)
O=c1ccc2cc(O)c(O)cc2o1	> 4 mM (inactive)
O=C(CSc1ncccn1)Nc1nccs1	> 4 mM (inactive)
C/C=C(/C)C(=O)O[C@@H]1Cc2c(ccc3ccc(=O)oc23)OC1(C)C	> 4 mM (inactive)
CC(=O)O[C@H]1C[C@@H](OC(C)=O)C(C)(C)C2C[C@@H](OC(C)=O)[C@]3(C)C(CC[C@@]4(C)[C@H](c5ccoc5)OC(=O)[C@H]5O[C@]543)[C@]21C (some centres not stated)	> 4 mM (inactive)
CC1CN(Cc2ccccn2)CCC1=O (configuration not stated)	> 4 mM (inactive)
CC(=O)NC(C)(C)C1CC=C(C)/C(=N\O)C1 (configuration not stated)	> 4 mM (inactive)
c1nnc2c3c4c(sc3ncn12)CCCC4	> 4 mM (inactive)

SMILES	Kd
NC(=O)c1ccccc1NC(=O)C1CCCO1 (configuration not stated)	> 4 mM (inactive)
O=C(c1ccccc1)c1ccccc1C(=O)N1CCCC1	> 4 mM (inactive)
CC(=O)c1ccc(N2C(=O)C(C(C)C)NC2=S)cc1 (configuration not stated)	> 4 mM (inactive)
OCC12COC3c4ccccc4C(OC1)N32 (configuration not stated)	> 4 mM (inactive)
CSc1ccccc1NC(=O)c1ccncc1	> 4 mM (inactive)
CCOC(=O)c1cc2ccccc2oc1=O	> 4 mM (inactive)
CC(CCC(=O)O)[C@H]1CCC2C3C(C[C@H](O)[C@@]21C)[C@@]1(C)CC[C@@H](O)C[C@H]1C[C@H]3O (some centres not stated)	> 4 mM (inactive)
NC(=O)C1(S(=O)(=O)c2ccccc2)CC1	> 4 mM (inactive)
O=S1(=O)C=C(Nc2ccccc2)CC1	> 4 mM (inactive)
CCn1cnc2scc(-c3ccccc3)c2c1=O	> 4 mM (inactive)
O=C(Nc1ccc(-c2nnco2)cc1)c1ccccc1	> 4 mM (inactive)
O=C(Nc1cccc2cccnc12)c1cccnc1	> 4 mM (inactive)
CC(C)CCCC1(C)C=Cc2c(O)c3c(c(CCC(C)C)c2O1)OC12C(CC4CC1C(C)(C)OC2(CCC(C)C(=O)O)C4O)C3=O (configuration not stated)	> 4 mM (inactive)
Cc1csc2nc(N)nn12	> 4 mM (inactive)
CC1(C)CC2C1CCC1(C)OC1CCC2(C)O (configuration not stated)	> 4 mM (inactive)
O=C1CNc2cc(C(=O)O)ccc2N1	> 4 mM (inactive)
O=S(=O)(CCN1CCCC1)c1ccccc1	> 4 mM (inactive)
CCn1cnc2sc(C(=O)O)c(C)c2c1=O	> 4 mM (inactive)
O=C1CNCc2[nH]c3ccccc3c2N1c1ccccc1	> 4 mM (inactive)
O=C(Nc1cnccn1)c1cccnc1	> 4 mM (inactive)
O=C(NCc1ccncc1)c1cccc(F)c1	> 4 mM (inactive)
Cc1cc(C)n(CCC(=O)O)n1	> 4 mM (inactive)
Cn1c(C(=O)O)ccc1S(N)(=O)=O	> 4 mM (inactive)
OCC(O)C(O)C(O)CO (configuration not stated)	> 4 mM (inactive)

SMILES	Kd
O=C(Nc1cccnc1)c1c(F)cccc1F	> 4 mM (inactive)
OCc1ccc(N2CCOCC2)cc1	> 4 mM (inactive)
COc1cccc(OC)c1C(=O)N1CCOCC1	> 4 mM (inactive)
COC(=O)c1c(C)c2c(c(C)c1O)OC(=O)c1c(C)c(Cl)c(O)c(Cl)c1O2	> 4 mM (inactive)
O=c1[nH]c(=S)c2c(n1-c1ccccc1)CCC2	> 4 mM (inactive)
COC(=O)C1=C(C)N(c2cccc(C(C)=O)c2)C(=O)C1	> 4 mM (inactive)
Nc1ccc(-n2cncn2)cc1	> 4 mM (inactive)
CC1(C)Cc2c(c(-c3ccco3)[nH]c(=O)c2C#N)CO1	> 4 mM (inactive)
O=C1CCC(C(=O)NCc2ccc(Cl)cc2)N1 (configuration not stated)	> 4 mM (inactive)
COCc1cc(C)nc2sc(C(=O)OC)c(N)c12	> 4 mM (inactive)
CS(=O)(=O)N/N=C/c1cccs1	> 4 mM (inactive)
O=C(CSc1nc2ccccc2[nH]1)N1CCCCC1	> 4 mM (inactive)
O=C(CN1CCOCC1)Nc1nccs1	> 4 mM (inactive)
CC1(C)Cc2cccc(C(=O)O)c2O1	> 4 mM (inactive)
Nc1ccc(-n2cccn2)cc1	> 4 mM (inactive)
NC(=O)c1ccsc1NC(=O)c1ccco1	> 4 mM (inactive)
CCOC(=O)c1snnc1-c1ccccc1	> 4 mM (inactive)
COCC(=O)OCn1nnc2ccccc2c1=O	> 4 mM (inactive)
CC1(C)CC[C@]2(C(=O)O)CC[C@]3(C)C(=CCC4[C@@]5(C)CC[C@H](O)[C@@](C)(CO)C5CC[C@]43C)C2C1 (some centres not stated)	> 4 mM (inactive)
CC(C)(C)c1ccc(SCC(N)=O)cc1	> 4 mM (inactive)
Cc1nn2c(=O)/c(=C/c3cccc(F)c3)sc2nc1=O	> 4 mM (inactive)
C/C(=N\NC(N)=S)C(=O)O	> 4 mM (inactive)
COc1ccc2[nH]cc(CCN(C)C)c2c1	> 4 mM (inactive)
CC(=O)OCC(=O)[C@@]1(O)CCC2C3CC[C@@H]4C[C@H](OC(C)=O)CC[C@]4(C)C3C(=O)C[C@@]21C (some centres not stated)	> 4 mM (inactive)

SMILES	Kd
Cc1nn(-c2ccccc2)nc1C(=O)O	> 4 mM (inactive)
CS(=O)(=O)CCCCN=C=S	> 4 mM (inactive)
CC(=O)Nc1nc(C)c(C(C)=O)s1	> 4 mM (inactive)
COc1cc(-c2coc3cc(O[C@@H]4O[C@H](CO)[C@@H](O)[C@H](O)[C@H]4O)c(OC)c(O)c3c2=O)cc(O)c1OC	> 4 mM (inactive)
O=C(O)Cc1noc2ccccc12	> 4 mM (inactive)
Cc1cc(C(F)(F)F)nn1CC(N)=O	> 4 mM (inactive)
NS(=O)(=O)c1ccc(N=C2NC(=O)CS2)cc1	> 4 mM (inactive)
O=C1NC(=S)NC(=O)C1=Cc1cccs1	> 4 mM (inactive)
Oc1ccccc1N1CCCC1	> 4 mM (inactive)
Cc1ccc(C2NS(=O)(=O)N=C2N)cc1 (configuration not stated)	> 4 mM (inactive)
CNC(=O)Cn1c(=O)n(C)c2ccccc21	> 4 mM (inactive)
COc1ccc(-c2noc(-c3ccco3)n2)cc1OC	> 4 mM (inactive)
Cc1occc1C(=O)NCc1ccncc1	> 4 mM (inactive)
NC(=O)NC1C=CS(=O)(=O)C1 (configuration not stated)	> 4 mM (inactive)
NC(=O)CSc1ccc(-c2ccco2)nn1	> 4 mM (inactive)
C/C=C(\C)c1nnc(NC(=O)C(C)C)s1	> 4 mM (inactive)
COc1ccccc1NC(=O)c1ccc(Br)o1	> 4 mM (inactive)
Cc1nc2ccccc2c(=O)n1/N=C/c1ccco1	> 4 mM (inactive)
COC(=O)CCSCC(=O)Nc1nccs1	> 4 mM (inactive)
CC(=O)c1ccc(-n2ccnc2)cc1	> 4 mM (inactive)
CCN1CCC(=NO)CC1	> 4 mM (inactive)
